Reference: PubChem BioAssay AID1919017 (Molecular Pharmacology Branch, DTP, NCI, 2023)

System: SW1271 complex spheroids with HUVEC/MSC, growth, % test/control
Experiment: Anticancer human tumor SW1271 cell line growth inhibition [AhR];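 further: spheroids exposed to agents for 7 days before readout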
Conditions: for IC50: curve of first compound; for viability, T/C: stronger effect = lower value
Outline: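 Agents were dosed in half-log steps down from roughly clinical Cmax, or from 10 microM where Cmax was unknown, alone and with AhR antagonists. Read-out: percent test/control growth of tumor spheroids containing HUVEC and MSC stromal cells.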

[1] = second compound 0.1 µM, first compound 0.0316 µM
[2] = second compound 0.1 µM, first compound 0.1 µM
[3] = second compound 0.1 µM, first compound 0.316 µM
[4] = second compound 0.1 µM, first compound 1 µM
[5] = second compound 0.1 µM, first compound 3.16 µM
[6] = second compound 0.1 µM, first compound 10 µM
[7] = second compound 0.316 µM, first compound 0.0316 µM
[8] = second compound 0.316 µM, first compound 0.1 µM
[9] = second compound 0.316 µM, first compound 0.316 µM
[10] = second compound 0.316 µM, first compound 1 µM
[11] = second compound 0.316 µM, first compound 3.16 µM
[12] = second compound 0.316 µM, first compound 10 µM
[13] = second compound 1 µM, first compound 0.0316 µM
[14] = second compound 1 µM, first compound 0.1 µM
[15] = second compound 1 µM, first compound 0.316 µM
[16] = second compound 1 µM, first compound 1 µM
[17] = second compound 1 µM, first compound 3.16 µM
[18] = second compound 1 µM, first compound 10 µM
[19] = second compound 3.16 µM, first compound 0.0316 µM
[20] = second compound 3.16 µM, first compound 0.1 µM
[21] = second compound 3.16 µM, first compound 0.316 µM
[22] = second compound 3.16 µM, first compound 1 µM
[23] = second compound 3.16 µM, first compound 3.16 µM
[24] = second compound 3.16 µM, first compound 10 µM
[25] = second compound 10 µM, first compound 0.0316 µM
[26] = second compound 10 µM, first compound 0.1 µM
[27] = second compound 10 µM, first compound 0.316 µM
[28] = second compound 10 µM, first compound 1 µM
[29] = second compound 10 µM, first compound 3.16 µM
[30] = second compound 10 µM, first compound 10 µM

For `CC1(C)CCC(CN2CCN(c3ccc(C(=O)NS(=O)(=O)c4ccc(NCC5CCOCC5)c([N+](=O)[O-])c4)c(Oc4cnc5[nH]ccc5c4)c3)CC2)=C(c2ccc(Cl)cc2)C1` + Cc1cncc(-c2nc(NCCc3c[nH]c4ccccc34)c3ncn(C(C)C)c3n2)c1, the IC50 (second compound 0.1 µM) was > 10 µM, the IC50 (second compound 0.316 µM) was > 10 µM and the IC50 (second compound 1 µM) was > 10 µM. For the same compound, the IC50 (second compound 3.16 µM) was > 10 µM, the IC50 (second compound 10 µM) was < 0.0316 µM and the viability, T/C [1] was 101%. The viability, T/C [2] was 92.7%, the viability, T/C [3] was 101% and the viability, T/C [4] was 116%. For the same compound, the viability, T/C [5] was 131%, the viability, T/C [6] was 95.7% and the viability, T/C [7] was 95%. The viability, T/C [8] was 93.3%, the viability, T/C [9] was 102% and the viability, T/C [10] was 88.4%. It also gave a viability, T/C [11] of 101%, a viability, T/C [12] of 125% and a viability, T/C [13] of 95.5%. The viability, T/C [14] was 79.8%, the viability, T/C [15] was 104% and the viability, T/C [16] was 90.5%. The viability, T/C [17] was 111%, the viability, T/C [18] was 102% and the viability, T/C [19] was 120%. It also gave a viability, T/C [20] of 98.5%, a viability, T/C [21] of 102% and a viability, T/C [22] of 94.7%. For the same compound, the viability, T/C [23] was 115%, the viability, T/C [24] was 110% and the viability, T/C [25] was 36.9%. It also gave a viability, T/C [26] of 46%, a viability, T/C [27] of 49.5% and a viability, T/C [28] of 33.6%. The viability, T/C [29] was 48.9% and the viability, T/C [30] was 44.9%.
`CCN(c1cc(-c2ccc(CN3CCOCC3)cc2)cc(C(=O)NCc2c(C)cc(C)[nH]c2=O)c1C)C1CCOCC1` + Cc1cncc(-c2nc(NCCc3c[nH]c4ccccc34)c3ncn(C(C)C)c3n2)c1 was tested, and the IC50 (second compound 0.1 µM) was > 3 µM, the IC50 (second compound 0.316 µM) was > 3 µM and the IC50 (second compound 1 µM) was > 3 µM. For the same compound, the IC50 (second compound 3.16 µM) was > 3 µM, the IC50 (second compound 10 µM) was < 0.00949 µM and the viability, T/C (second compound 0.1 µM, first compound 0.00949 µM) was 81%. It also gave a viability, T/C (second compound 0.1 µM, first compound 0.03 µM) of 100%, a viability, T/C (second compound 0.1 µM, first compound 0.0949 µM) of 108% and a viability, T/C (second compound 0.1 µM, first compound 0.3 µM) of 97.5%. The viability, T/C (second compound 0.1 µM, first compound 0.949 µM) was 99.7%, the viability, T/C (second compound 0.1 µM, first compound 3 µM) was 118% and the viability, T/C (second compound 0.316 µM, first compound 0.00949 µM) was 99%. It also gave a viability, T/C (second compound 0.316 µM, first compound 0.03 µM) of 105%, a viability, T/C (second compound 0.316 µM, first compound 0.0949 µM) of 103% and a viability, T/C (second compound 0.316 µM, first compound 0.3 µM) of 124%. It also gave a viability, T/C (second compound 0.316 µM, first compound 0.949 µM) of 106%, a viability, T/C (second compound 0.316 µM, first compound 3 µM) of 115% and a viability, T/C (second compound 1 µM, first compound 0.00949 µM) of 94.6%. For the same compound, the viability, T/C (second compound 1 µM, first compound 0.03 µM) was 112%, the viability, T/C (second compound 1 µM, first compound 0.0949 µM) was 118% and the viability, T/C (second compound 1 µM, first compound 0.3 µM) was 94.1%. For the same compound, the viability, T/C (second compound 1 µM, first compound 0.949 µM) was 106%, the viability, T/C (second compound 1 µM, first compound 3 µM) was 110% and the viability, T/C (second compound 3.16 µM, first compound 0.00949 µM) was 101%. For the same compound, the viability, T/C (second compound 3.16 µM, first compound 0.03 µM) was 109%, the viability, T/C (second compound 3.16 µM, first compound 0.0949 µM) was 97% and the viability, T/C (second compound 3.16 µM, first compound 0.3 µM) was 87.9%. It also gave a viability, T/C (second compound 3.16 µM, first compound 0.949 µM) of 96%, a viability, T/C (second compound 3.16 µM, first compound 3 µM) of 91.2% and a viability, T/C (second compound 10 µM, first compound 0.00949 µM) of 48.8%. It also gave a viability, T/C (second compound 10 µM, first compound 0.03 µM) of 46.5%, a viability, T/C (second compound 10 µM, first compound 0.0949 µM) of 45.2% and a viability, T/C (second compound 10 µM, first compound 0.3 µM) of 38.3%. For the same compound, the viability, T/C (second compound 10 µM, first compound 0.949 µM) was 27.5% and the viability, T/C (second compound 10 µM, first compound 3 µM) was 6.84%.
For `Cn1ncnc1C1c2n[nH]c(=O)c3cc(F)cc(c23)NC1c1ccc(F)cc1` (stereo not given) + Cc1cncc(-c2nc(NCCc3c[nH]c4ccccc34)c3ncn(C(C)C)c3n2)c1, the IC50 (second compound 0.1 µM) was > 0.1 µM, the IC50 (second compound 0.316 µM) was > 0.1 µM and the IC50 (second compound 1 µM) was > 0.1 µM. The IC50 (second compound 3.16 µM) was > 0.1 µM, the IC50 (second compound 10 µM) was > 0.1 µM and the viability, T/C (second compound 0.1 µM, first compound 0.000316 µM) was 111%. It also gave a viability, T/C (second compound 0.1 µM, first compound 0.001 µM) of 103%, a viability, T/C (second compound 0.1 µM, first compound 0.00316 µM) of 94.4% and a viability, T/C (second compound 0.1 µM, first compound 0.01 µM) of 119%. The viability, T/C [1] was 110%, the viability, T/C [2] was 107% and the viability, T/C (second compound 0.316 µM, first compound 0.000316 µM) was 96.2%. It also gave a viability, T/C (second compound 0.316 µM, first compound 0.001 µM) of 90.7%, a viability, T/C (second compound 0.316 µM, first compound 0.00316 µM) of 88.6% and a viability, T/C (second compound 0.316 µM, first compound 0.01 µM) of 98.2%. It also gave a viability, T/C [7] of 77.4%, a viability, T/C [8] of 91% and a viability, T/C (second compound 1 µM, first compound 0.000316 µM) of 91.8%. For the same compound, the viability, T/C (second compound 1 µM, first compound 0.001 µM) was 103%, the viability, T/C (second compound 1 µM, first compound 0.00316 µM) was 92.4% and the viability, T/C (second compound 1 µM, first compound 0.01 µM) was 95.8%. It also gave a viability, T/C [13] of 94.7%, a viability, T/C [14] of 83.3% and a viability, T/C (second compound 3.16 µM, first compound 0.000316 µM) of 103%. For the same compound, the viability, T/C (second compound 3.16 µM, first compound 0.001 µM) was 105%, the viability, T/C (second compound 3.16 µM, first compound 0.00316 µM) was 88.2% and the viability, T/C (second compound 3.16 µM, first compound 0.01 µM) was 92%. The viability, T/C [19] was 98.6%, the viability, T/C [20] was 94.7% and the viability, T/C (second compound 10 µM, first compound 0.000316 µM) was 44.9%. For the same compound, the viability, T/C (second compound 10 µM, first compound 0.001 µM) was 43.8%, the viability, T/C (second compound 10 µM, first compound 0.00316 µM) was 86.5% and the viability, T/C (second compound 10 µM, first compound 0.01 µM) was 53.5%. It also gave a viability, T/C [25] of 61.3% and a viability, T/C [26] of 40.7%.
With `NS(=O)(=O)OCC1CC(n2ccc3c(NC4CCc5ccccc54)ncnc32)CC1O` (stereo not given) + Cc1cncc(-c2nc(NCCc3c[nH]c4ccccc34)c3ncn(C(C)C)c3n2)c1 the IC50 (second compound 0.1 µM) was > 10 µM, the IC50 (second compound 0.316 µM) was > 10 µM and the IC50 (second compound 1 µM) was > 10 µM. The IC50 (second compound 3.16 µM) was > 10 µM, the IC50 (second compound 10 µM) was 0.512 µM and the viability, T/C [1] was 129%. The viability, T/C [2] was 140%, the viability, T/C [3] was 145% and the viability, T/C [4] was 86%. For the same compound, the viability, T/C [5] was 76.5%, the viability, T/C [6] was 71.8% and the viability, T/C [7] was 131%. For the same compound, the viability, T/C [8] was 177%, the viability, T/C [9] was 136% and the viability, T/C [10] was 100%. For the same compound, the viability, T/C [11] was 76.7%, the viability, T/C [12] was 81% and the viability, T/C [13] was 143%. The viability, T/C [14] was 166%, the viability, T/C [15] was 154% and the viability, T/C [16] was 76.3%. The viability, T/C [17] was 75%, the viability, T/C [18] was 79% and the viability, T/C [19] was 185%. The viability, T/C [20] was 168%, the viability, T/C [21] was 158% and the viability, T/C [22] was 71.2%. The viability, T/C [23] was 63.3%, the viability, T/C [24] was 66.1% and the viability, T/C [25] was 94.1%. It also gave a viability, T/C [26] of 96.3%, a viability, T/C [27] of 54.7% and a viability, T/C [28] of 44.5%. For the same compound, the viability, T/C [29] was 44.4% and the viability, T/C [30] was 41.3%.
